Data from the supplement of paper PMC12463676, “Small-molecule dissolution of stress granules by redox modulation benefits ALS models” (Nature Chemical Biology, 2025).

What was measured:
potassium arsenate = compound: O=[As]([O-])(O)O.[K+] [potassium arsenate]; experiment: thermal stability z-score vs DMSO; higher = more thermally stabilized by treatment; settings: HeLa; arsenate concentration 1 mM
Description: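 Cellular thermal proteome profiling in HeLa cells treated with 1 mM arsenate for 1 h (DMSO pretreatment), heated to ten temperatures (37-66.3 °C). Soluble protein was quantified by TMT mass spectrometry relative to DMSO controls; the thermal stability score was transformed to a z-score; mean of n = 3 experiments.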

lipoamide = compound: NC(=O)CCCCC1CCSS1 [lipoamide]; experiment: as above; settings: HeLa, lipoamide concentration 100 µM
Description: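 Cellular thermal proteome profiling in HeLa cells. Cells were treated with 100 µM lipoamide for 1 h, with or without 1 mM arsenate for a further 1 h, then heated to ten temperatures (37-66.3 °C), and soluble protein was quantified by TMT mass spectrometry relative to 0.1% DMSO controls. The thermal stability score (sum of log2 fold changes minus the abundance score) was transformed to a z-score; mean of n = 3 experiments.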

[1] = arsenate co-treatment: 1 mM arsenate 1 h
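Also: each temperature applied for 3 min, abundance score taken as mean log2 fold change at the two lowest temperatures, z-score obtained by mean subtraction and division by SD.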

Chain of UniProt Q9BT09 (Q9BT09 whole entry): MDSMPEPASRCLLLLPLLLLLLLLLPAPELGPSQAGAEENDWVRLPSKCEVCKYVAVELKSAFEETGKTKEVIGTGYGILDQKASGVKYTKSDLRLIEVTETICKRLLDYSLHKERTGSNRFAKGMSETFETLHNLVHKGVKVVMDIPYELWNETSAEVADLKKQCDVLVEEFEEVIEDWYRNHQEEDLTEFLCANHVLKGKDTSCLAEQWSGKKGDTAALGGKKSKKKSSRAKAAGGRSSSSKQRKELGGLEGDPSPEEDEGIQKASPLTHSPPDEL
Chain of UniProt Q53SF7 (Q53SF7 whole entry): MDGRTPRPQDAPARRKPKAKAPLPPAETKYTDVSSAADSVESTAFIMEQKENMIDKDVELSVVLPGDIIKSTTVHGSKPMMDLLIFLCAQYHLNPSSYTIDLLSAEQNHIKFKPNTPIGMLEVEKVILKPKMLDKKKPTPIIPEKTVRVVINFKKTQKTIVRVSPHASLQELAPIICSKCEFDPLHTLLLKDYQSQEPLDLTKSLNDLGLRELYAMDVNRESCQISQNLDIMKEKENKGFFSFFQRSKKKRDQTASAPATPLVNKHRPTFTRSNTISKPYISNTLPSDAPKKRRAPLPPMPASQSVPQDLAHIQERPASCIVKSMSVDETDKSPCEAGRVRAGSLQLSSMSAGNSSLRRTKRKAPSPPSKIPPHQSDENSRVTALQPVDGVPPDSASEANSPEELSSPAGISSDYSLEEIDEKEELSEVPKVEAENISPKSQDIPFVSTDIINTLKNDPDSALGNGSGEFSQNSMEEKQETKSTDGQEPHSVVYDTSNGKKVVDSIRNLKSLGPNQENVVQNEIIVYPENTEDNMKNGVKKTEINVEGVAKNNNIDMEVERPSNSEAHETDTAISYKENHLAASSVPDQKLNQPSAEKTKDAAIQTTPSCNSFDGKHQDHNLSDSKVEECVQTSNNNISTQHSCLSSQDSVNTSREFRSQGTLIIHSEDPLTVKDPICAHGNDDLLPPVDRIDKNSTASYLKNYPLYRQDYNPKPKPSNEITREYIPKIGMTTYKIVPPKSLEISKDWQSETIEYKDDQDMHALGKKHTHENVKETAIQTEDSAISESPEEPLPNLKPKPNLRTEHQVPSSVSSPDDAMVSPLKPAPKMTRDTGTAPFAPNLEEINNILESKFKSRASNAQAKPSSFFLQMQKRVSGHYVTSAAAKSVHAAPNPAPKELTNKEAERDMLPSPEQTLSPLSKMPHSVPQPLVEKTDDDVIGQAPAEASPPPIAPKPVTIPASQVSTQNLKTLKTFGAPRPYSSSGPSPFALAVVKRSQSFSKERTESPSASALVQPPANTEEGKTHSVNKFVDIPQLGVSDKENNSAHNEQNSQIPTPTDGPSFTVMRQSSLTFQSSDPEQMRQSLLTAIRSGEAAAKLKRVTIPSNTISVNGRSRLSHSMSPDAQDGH
Chain of UniProt Q5JTJ3 (Q5JTJ3 whole entry): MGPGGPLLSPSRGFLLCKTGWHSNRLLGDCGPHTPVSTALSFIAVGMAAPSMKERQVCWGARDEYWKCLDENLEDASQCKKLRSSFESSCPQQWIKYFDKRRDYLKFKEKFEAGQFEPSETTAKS
Chain of UniProt P83436 (P83436 whole entry): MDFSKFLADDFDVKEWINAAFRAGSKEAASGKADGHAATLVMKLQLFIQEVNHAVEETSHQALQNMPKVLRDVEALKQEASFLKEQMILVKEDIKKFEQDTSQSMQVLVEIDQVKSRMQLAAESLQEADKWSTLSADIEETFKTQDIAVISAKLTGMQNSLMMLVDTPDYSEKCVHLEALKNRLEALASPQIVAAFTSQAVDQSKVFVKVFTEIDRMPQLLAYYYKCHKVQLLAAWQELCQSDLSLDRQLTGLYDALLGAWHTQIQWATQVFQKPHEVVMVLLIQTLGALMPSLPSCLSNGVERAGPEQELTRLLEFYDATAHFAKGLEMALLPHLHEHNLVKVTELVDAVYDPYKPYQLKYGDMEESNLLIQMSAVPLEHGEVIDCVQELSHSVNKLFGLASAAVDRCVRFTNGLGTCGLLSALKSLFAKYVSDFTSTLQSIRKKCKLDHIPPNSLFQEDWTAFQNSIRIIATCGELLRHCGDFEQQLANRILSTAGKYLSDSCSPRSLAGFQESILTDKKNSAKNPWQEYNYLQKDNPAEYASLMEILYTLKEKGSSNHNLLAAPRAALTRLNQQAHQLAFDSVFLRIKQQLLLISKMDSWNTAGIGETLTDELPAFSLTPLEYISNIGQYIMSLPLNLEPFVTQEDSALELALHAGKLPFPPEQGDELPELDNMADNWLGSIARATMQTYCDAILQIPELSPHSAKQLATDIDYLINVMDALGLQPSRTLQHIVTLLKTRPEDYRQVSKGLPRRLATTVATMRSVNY
Chain of UniProt Q8N668 (Q8N668 whole entry): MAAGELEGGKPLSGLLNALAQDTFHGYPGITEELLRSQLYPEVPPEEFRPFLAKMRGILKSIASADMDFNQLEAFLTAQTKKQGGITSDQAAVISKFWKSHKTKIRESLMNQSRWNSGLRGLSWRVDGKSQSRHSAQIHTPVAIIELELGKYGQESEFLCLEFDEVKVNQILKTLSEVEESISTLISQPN
Chain of UniProt Q8WTW3 (Q8WTW3 whole entry): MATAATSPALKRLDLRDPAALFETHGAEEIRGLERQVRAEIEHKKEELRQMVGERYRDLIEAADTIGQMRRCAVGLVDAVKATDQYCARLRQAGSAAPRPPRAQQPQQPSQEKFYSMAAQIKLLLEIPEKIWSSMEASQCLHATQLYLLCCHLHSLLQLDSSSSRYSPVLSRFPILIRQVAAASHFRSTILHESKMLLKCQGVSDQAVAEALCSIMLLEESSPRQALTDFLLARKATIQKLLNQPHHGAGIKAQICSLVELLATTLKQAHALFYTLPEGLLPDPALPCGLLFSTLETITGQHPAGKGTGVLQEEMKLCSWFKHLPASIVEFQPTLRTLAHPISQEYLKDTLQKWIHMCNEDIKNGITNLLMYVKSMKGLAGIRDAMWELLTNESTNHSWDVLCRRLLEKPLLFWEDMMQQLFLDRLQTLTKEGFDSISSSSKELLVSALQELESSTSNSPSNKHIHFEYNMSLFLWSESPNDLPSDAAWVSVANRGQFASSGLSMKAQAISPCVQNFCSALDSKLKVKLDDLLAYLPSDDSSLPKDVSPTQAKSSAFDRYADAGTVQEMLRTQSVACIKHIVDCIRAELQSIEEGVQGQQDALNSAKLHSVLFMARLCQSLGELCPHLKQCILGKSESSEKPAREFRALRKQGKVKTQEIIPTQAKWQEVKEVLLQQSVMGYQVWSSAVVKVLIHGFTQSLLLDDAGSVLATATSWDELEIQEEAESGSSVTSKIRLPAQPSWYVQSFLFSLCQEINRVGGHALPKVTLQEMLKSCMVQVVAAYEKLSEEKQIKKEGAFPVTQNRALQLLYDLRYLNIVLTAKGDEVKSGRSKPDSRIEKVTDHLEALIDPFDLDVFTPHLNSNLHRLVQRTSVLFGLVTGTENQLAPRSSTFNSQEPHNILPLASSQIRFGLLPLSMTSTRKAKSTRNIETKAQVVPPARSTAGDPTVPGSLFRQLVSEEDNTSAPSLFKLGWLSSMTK
Chain of UniProt Q9H0A8 (Q9H0A8 whole entry): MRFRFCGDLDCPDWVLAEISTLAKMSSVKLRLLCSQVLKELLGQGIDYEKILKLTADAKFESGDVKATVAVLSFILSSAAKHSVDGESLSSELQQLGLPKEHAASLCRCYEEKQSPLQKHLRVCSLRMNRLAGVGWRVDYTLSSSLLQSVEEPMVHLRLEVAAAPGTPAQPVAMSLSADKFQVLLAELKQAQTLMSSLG
Chain of UniProt Q9GZQ3 (Q9GZQ3 whole entry): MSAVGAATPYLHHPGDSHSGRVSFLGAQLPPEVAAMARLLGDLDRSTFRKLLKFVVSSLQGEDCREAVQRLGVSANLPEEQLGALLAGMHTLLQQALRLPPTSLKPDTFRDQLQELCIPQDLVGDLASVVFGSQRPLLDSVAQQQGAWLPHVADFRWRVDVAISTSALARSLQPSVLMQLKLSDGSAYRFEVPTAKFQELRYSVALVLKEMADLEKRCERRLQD
Chain of UniProt P09543 (P09543 whole entry): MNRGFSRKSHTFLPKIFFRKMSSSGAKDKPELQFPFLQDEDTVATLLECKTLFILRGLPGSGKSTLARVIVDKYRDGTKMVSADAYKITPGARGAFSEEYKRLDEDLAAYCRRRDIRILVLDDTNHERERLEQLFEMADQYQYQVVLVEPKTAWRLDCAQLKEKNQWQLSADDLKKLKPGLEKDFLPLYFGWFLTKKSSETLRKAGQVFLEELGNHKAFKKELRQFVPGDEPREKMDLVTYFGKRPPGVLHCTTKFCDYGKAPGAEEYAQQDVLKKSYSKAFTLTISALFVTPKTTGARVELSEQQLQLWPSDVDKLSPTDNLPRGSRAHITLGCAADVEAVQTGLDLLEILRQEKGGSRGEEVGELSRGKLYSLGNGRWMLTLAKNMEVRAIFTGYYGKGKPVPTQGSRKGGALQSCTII
Chain of UniProt Q86WW8 (Q86WW8 whole entry): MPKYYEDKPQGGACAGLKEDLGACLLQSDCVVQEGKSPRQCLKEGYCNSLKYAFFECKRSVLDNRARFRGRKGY
Chain of UniProt Q9UBI1 (Q9UBI1 whole entry): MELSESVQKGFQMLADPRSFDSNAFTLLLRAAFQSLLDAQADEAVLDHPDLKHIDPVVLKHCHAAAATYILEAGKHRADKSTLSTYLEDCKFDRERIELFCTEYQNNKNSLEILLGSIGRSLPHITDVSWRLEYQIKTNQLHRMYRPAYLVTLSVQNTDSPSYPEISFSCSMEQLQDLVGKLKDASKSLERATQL
Chain of UniProt Q86VU5 (Q86VU5 whole entry): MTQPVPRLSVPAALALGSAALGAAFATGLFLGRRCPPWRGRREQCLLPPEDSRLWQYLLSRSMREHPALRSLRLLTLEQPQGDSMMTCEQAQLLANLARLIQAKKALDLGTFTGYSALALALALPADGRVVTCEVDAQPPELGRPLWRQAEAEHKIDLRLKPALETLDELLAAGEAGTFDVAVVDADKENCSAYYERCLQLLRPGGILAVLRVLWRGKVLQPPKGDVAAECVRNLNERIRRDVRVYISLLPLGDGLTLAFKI

Target	thermal stability z-score (potassium arsenate)	thermal stability z-score (lipoamide; [1])	thermal stability z-score (lipoamide; arsenate co-treatment: none)
CNP (UniProt P09543)	-0.287	1.14	0.855
CNPY3 (UniProt Q9BT09)	-0.0267	-4.03	-4.98
CNPY4 (UniProt Q8N129)	0.532	-1.84	-1.57
CNTLN (UniProt Q9NXG0)	-0.0711	-0.163	-0.342
COA1 (UniProt Q9GZY4)	0.234	0.229	0.587
COA3 (UniProt Q9Y2R0)	0.126	0.463	0.725
COA5 (UniProt Q86WW8)	0.0388	-0.51	-0.761
COA6 (UniProt Q5JTJ3)	0.756	1.7	1.85
COA7 (UniProt Q96BR5)	-0.364	0.203	0.0661
COASY (UniProt Q13057)	0.944	-0.525	-0.09
COBL (UniProt O75128)	-0.0126	0.182	0.154
COBLL1 (UniProt Q53SF7)	-0.608	0.248	0.43
COG1 (UniProt Q8WTW3)	0.183	-0.441	-0.42
COG2 (UniProt Q14746)	0.6	0.0711	-0.137
COG3 (UniProt Q96JB2)	2.95	1.88	2.29
COG4 (UniProt Q9H9E3)	-0.419	-0.919	-1.44
COG5 (UniProt Q9UP83)	0.793	-0.297	-0.0509
COG6 (UniProt Q9Y2V7)	-0.012	-0.00556	-0.0575

Target	thermal stability z-score (potassium arsenate)	thermal stability z-score (lipoamide; [1])	thermal stability z-score (lipoamide; arsenate co-treatment: none)
COG7 (UniProt P83436)	0.224	-0.825	-0.928
COG8 (UniProt Q96MW5)	0.149	0.022	0.151
COL4A2 (UniProt P08572)	0.138	-1.15	-0.802
COL4A3BP (UniProt Q9Y5P4)	0.568	-0.466	0.862
COL5A1 (UniProt P20908)	0.375	-1.41	-1.55
COL5A2 (UniProt P05997)	1.12	-3.8	-3.3
COL12A1 (UniProt Q99715)	0.59	-3.01	-2.92
COLGALT1 (UniProt Q8NBJ5)	0.633	-4.85	-4.14
COMMD1 (UniProt Q8N668)	-0.333	0.0519	0.0285
COMMD2 (UniProt Q86X83)	-0.00764	0.00791	-0.169
COMMD3 (UniProt Q9UBI1)	-1.12	-0.911	-0.0897
COMMD4 (UniProt Q9H0A8)	-0.322	-0.113	-0.32
COMMD5 (UniProt Q9GZQ3)	0.0506	-0.212	0.573
COMMD9 (UniProt Q9P000)	-0.0631	-0.221	-0.146
COMMD10 (UniProt Q9Y6G5)	0.307	0.107	0.18
COMT (UniProt P21964)	-0.525	0.121	0.102
COMTD1 (UniProt Q86VU5)	-0.237	-0.328	-1.94
